From patent publication US20240108636A1, “COMPOSITIONS FOR TREATMENT OF NEURODEGENERATIVE CONDITIONS” (BIOVIE INC., priority 2021, published 2024)
Where a name gives a salt, the structure may show the parent alone.

Columns and labels:
[1] = test system: levodopa-induced dyskinesia (LID); assay: Abnormal involuntary movements score (AIMS), levodopa-induced dyskinesia in MPTP marmosets; assay type: in vivo, marmoset monkeys (Callithrix jacchus); settings: for AIMS: Week 12, in combination with levodopa 10 mg/kg, items scored 0-4; for Abnormal involuntary movements scores (AIMS) in combination with levodopa: Week 12, levodopa 5, 7.5, 10, 12.5 or 25 mg/kg, FIG. 2
Experimental: (§1) The severity of LID was measured by abnormal involuntary movements score (AIMS) adapted to the primate PD model. The items include assessment of extremity and trunk movements, facial expression, and movement of the lips, peri-oral area, tongue, and jaw. These symptoms were scored on a scale from 0 (normal), 1 ([…]), 2 (mild), 3 (moderate) to 4 (severe). Measurement of parkinsonian behaviors continued as previously described. […] The subjects were exsanguinated under deep anaesthesia with Alphaxan (18 mg/kg i.m.). Immediately thereafter, the subjects were euthanized with EUTHASOL (pentobarbital natrium, i.c.). The brain of each subject was removed and frozen for immunohistochemical analyses. SNpc was analyzed for the presence of DA positive neurons with tyrosine hydroxylase immune reactive (TH-IR) staining.

[2] = test system: rodent models of systemic inflammation and neuroinflammation; settings: cited from earlier work
[3] = test system: MPTP model of Parkinson's disease; assay: Immobility score, MPTP model of Parkinson's disease in marmoset monkeys; assay type: in vivo, marmoset monkeys (Callithrix jacchus); settings: for Mean immobility score: 0-4 scale
Text: (§2) The 1-methyl-4-phenyl-1,2,3,6-tetrahydropyridine (MPTP) model that was used is capable of reducing striatal dopamine levels to 5% of normal controls. The MPTP model was used to produce Parkinson's-like disease symptoms in three sequential independent cohorts of six marmosets monkeys (Callithrix jacchus, approximately 0.3-0.5 kg, 2-5 years) which were then observed for 3 weeks to confirm the absence of parkinsonian behavior and motor abnormalities. A single dose of 17-EAT or amantadine was administered at the beginning of Week 4 to confirm the absence of behavioral side effects. All subjects received subcutaneous injections of 1-2 mg/kg MPTP on Days 3, 4, and 5 of Week 5 and Day 1 and 3 of Week 6 for a total of 6.5 mg/kg MPTP and were observed through the end of Week 7 without further treatment, then randomized for treatment.
Oral administration of treatment of vehicle, amantadine, or 17-EAT formulated in acacia syrup began at the start of Week 8. Vehicle controls received acacia syrup only. Amantadine HCl (Sigma Aldrich, A1260-SG) was administered daily at a dose of 1 mg/kg. 17-EAT was administered daily at a dose of 30 mg/kg. In Weeks 8 and 9 test compound activity against parkinsonian behavior was observed several times daily for effects on clinical signs (lack of grooming, apathy, immobility, muscle rigidity, and tremor activity) and given an immobility score on a 0-4 scale, with 0 being normal and 4 being the most severe score. Ratings were performed by study personnel blind to treatment.

[4] = test system: tyrosine hydroxylase positive neurons; assay: Surviving tyrosine hydroxylase positive neurons in substantia nigra of MPTP marmosets; assay type: in vivo, marmoset monkeys (Callithrix jacchus); settings: Week 14, substantia nigra; FIG. 3
Experimental: as §1
In Week 14, all subjects were sacrificed and tissue samples from the substantia nigra were evaluated to measure the number of surviving tyrosine hydroxylase positive neurons. The increase in number of surviving TH+ neurons for subjects treated with amantadine and 17-EAT was 40% and 75%, as shown in FIG. 3.

[5] = test system: TNF, IL-1b, IL-6, and other inflammatory cytokines; settings: cited from earlier work
[6] = Body weight of MPTP marmosets; assay type: in vivo, marmoset monkeys (Callithrix jacchus); settings: FIG. 4
Text: as §2
Oral administration of treatment of vehicle, amantadine, or 17-EAT formulated in acacia syrup began at the start of Week 8. Vehicle controls received acacia syrup only. Amantadine HCl (Sigma Aldrich, A1260-SG) was administered daily at a dose of 1 mg/kg. 17-EAT was administered daily at a dose of 30 mg/kg. […]

[7] = Week 7, prior to treatment, 0 normal, 4 most severe
[8] = Week 8, monotherapy, oral daily (amantadine 1 mg/kg, 17-EAT 30 mg/kg)
[9] = Week 9, monotherapy, oral daily (amantadine 1 mg/kg, 17-EAT 30 mg/kg)

| Compound | AIMS [1] | Abnormal involuntary movements scores (AIMS) in combination with levodopa [1] | Activity in rodent models of neurological disease ([2]; Parkinson's disease, experimental autoimmune encephalomyelitis, optic neuritis, glaucoma) | Activity in rodent models of systemic inflammation ([2]; type 2 diabetes, COPD, rheumatoid arthritis) | Mean immobility score [3, 7] | Mean immobility score [3, 8] | Mean immobility score [3, 9] | Mean immobility scores in combination with levodopa ([3]; combination with levodopa 5, 7.5, 10, 12.5 or 25 mg/kg, FIG. 1) | Increase in number of surviving TH+ neurons [4] | Expression of TNF, IL-1b, IL-6, and other inflammatory cytokines [5] | Mean body weight [6] | LID expression ([1]; levodopa 12.5 mg/kg BID) |
| --- | --- | --- | --- | --- | --- | --- | --- | --- | --- | --- | --- | --- |
| C#C[C@]1(O)CC[C@H]2[C@@H]3[C@@H](O)C=C4C[C@@H](O)CC[C@]4(C)[C@H]3CC[C@@]21C [Compound 17-EAT, 17-ethynyl-10R, 13S-dimethyl 2,3,4,7, 8R, 9S, 10, 11, 12, 13, 14S, 15, 16, 17-hexadecahydro-1H-cyclopenta[a]phenanthrene-3R, 7R, 17S-triol] | 2.1 | improved compared to monotherapy | anti-neuroinflammatory or neuroprotective activity | active in rodent models of systemic inflammation | 2.72 | 2.26 | 2.10 | improved compared to 17-EAT monotherapy | 75% | decreases expression | maintained a higher mean body weight compared to either vehicle or amantadine | – |
| N[C@@H](Cc1ccc(O)c(O)c1)C(=O)O [Levodopa, L-3,4-dihydroxyphenylalanine] | – | – | – | – | – | – | – | – | – | – | – | induced LID expression in all subjects |
| NC12CC3CC(CC(C3)C1)C2 [Amantadine, Amantadine HCl] | 4.5 | improved compared to monotherapy | – | – | 2.59 | 2.74 | 2.72 | – | 40% | – | – | – |
